What was measured:
[1] = system: Aphis Craccivora (cowpea aphid); test: Example B10: activity against Aphis craccivora, pea seedling roots in test solution (systemic/feeding); format: in vivo; conditions: 144 h, roots of infested pea seedlings in test solution, 6 days
From the text: Activity Against Aphis Craccivora (Cowpea Aphid)
(Mixed Population, Systemic/Feeding)

[2] = system: Myzus persicae (green peach aphid); test: Example B17: activity against Myzus persicae on sprayed pepper plants (feeding/residual contact); format: in vivo; conditions: 144 h, infested pepper plants sprayed, 6 days
[3] = system: Myzus persicae (green peach aphid); test: Example B2: activity against Myzus persicae, pea seedling roots in test solution (systemic/feeding, curative); conditions: 144 h, read-out: activity (mortality)
[4] = system: Nilaparvata lugens (brown rice planthopper); test: Example B8: activity against Nilaparvata lugens, sprayed rice seedlings (larvicide, feeding/contact); conditions: in Oryza sativa, read-out: activity (mortality, growth regulation, effects on F1 generation)
[5] = system: Tetranychus urticae (two-spotted spider mite); test: Example B4: activity against Tetranychus urticae, sprayed bean leaf discs (feeding/residual contact, preventive); conditions: foliar, 192 h, read-out: activity (egg, larval and adult mortality)
[6] = system: Myzus persicae (green peach aphid); test: Example B1: activity against Myzus persicae, sprayed sunflower leaf discs (feeding/residual contact, preventive); conditions: foliar, 144 h, read-out: activity (mortality)
[7] = system: Aphis Craccivora (cowpea aphid); test: Example B11: translaminar activity against Aphis craccivora on French bean leaves; format: in vivo; conditions: 120 h, upper leaf side painted, aphids on lower side, 5 days
Protocol: Translaminar Activity Against Aphis Craccivora (Cowpea Aphid)
French bean leaves (Phaseolus vulgaris) are infested with about 20 mixed age individuals on the lower leaf side using clip cages. 1 day after the infestation, the upper side of the leaves is treated with the test solution by painting. 5 days later, samples are checked for mortality.

[8] = system: Myzus persicae (green peach aphid); test: Example B13: drench activity against Myzus persicae, pea seedlings in field soil; conditions: 168 h, read-out: drench activity (mortality)

| SMILES | mortality at 400 ppm [1] [%] | mortality at 200 ppm [2] [%] | mortality at 400 ppm [3] [%] | mortality at 400 ppm [4] [%] | mortality at 400 ppm [5] [%] | mortality at 400 ppm [6] [%] | mortality at 400 ppm [7] [%] | mortality at 25 ppm [8] [%] |
| --- | --- | --- | --- | --- | --- | --- | --- | --- |
| CON1CCC2(CC1)C(O)=C(c1c(C)cc(C)cc1C)C(=O)N2OCC1(C)COC1 [P2.19] | > 80 | ≥ 80 | > 80 | > 80 | > 80 | > 80 | > 80 |  |
| CCOC(=O)OC1=C(c2c(C)cc(C)cc2C)C(=O)N(OCC2(C)COC2)C12CCN(OC)CC2 [P1.23] | > 80 |  | > 80 |  |  |  | > 80 | > 80 |
| CCOC(=O)OC1=C(c2c(C)cc(C)cc2C)C(=O)N(OCC2CCCC2)C12CCN(OC)CC2 [P1.83] |  | ≥ 80 | > 80 |  | > 80 |  |  |  |
| CCC1(CON2C(=O)C(c3c(C)cc(C)cc3C)=C(O)C23CCN(OC)CC3)COC1 [P2.86] |  | ≥ 80 |  |  | > 80 | > 80 |  |  |
| CCOC(=O)OC1=C(c2c(C)ccc(Cl)c2C)C(=O)N(OCOC)C12CCN(OC)CC2 [P1.55] | > 80 | ≥ 80 | > 80 | > 80 |  | > 80 | > 80 | > 80 |
| CCOC(=O)OC1=C(c2c(C)cc(Br)cc2C)C(=O)N(OC)C12CCN(OC)CC2 [P1.88] |  | ≥ 80 | > 80 | > 80 | > 80 | > 80 |  | > 80 |
| CON1CCC2(CC1)C(O)=C(c1c(C)cc(C)cc1Br)C(=O)N2OC1CCCO1 (stereo not shown) [P2.69] |  | ≥ 80 | > 80 |  | > 80 | > 80 |  |  |
| CCOC(=O)OC1=C(c2c(C)cc(C)cc2C)C(=O)N(OC2CCCC2)C12CCN(OC)CC2 [P1.28] |  |  |  | > 80 | > 80 |  |  |  |
| CCOC(=O)OC1=C(c2c(C)cc(C)cc2C)C(=O)N(OCC2CCCOC2)C12CCN(OC)CC2 (stereo not shown) [P1.109] |  |  | > 80 |  | > 80 | > 80 |  |  |
| CON1CCC2(CC1)C(O)=C(c1c(C)cc(C)cc1C)C(=O)N2OC1CCCCO1 (stereo not shown) [P2.65] |  | ≥ 80 | > 80 |  | > 80 | > 80 |  |  |
| CON1CCC2(CC1)C(O)=C(c1c(C)cc(C)cc1C)C(=O)N2OCC1CCCOC1 (stereo not shown) [P2.100] |  |  | > 80 |  | > 80 | > 80 |  |  |
| CCOC(=O)OC1=C(c2c(C)cc(C)cc2C)C(=O)N(OC2CCN(OC)CC2)C12CCN(OC)CC2 [P1.104] |  |  | > 80 |  | > 80 |  |  |  |
| CON1CCC2(CC1)C(O)=C(c1cc(C)c(Cl)cc1C)C(=O)N2OC [P2.31] |  |  |  |  | > 80 | > 80 |  |  |
| CCOC(=O)OC1=C(c2c(C)cc(C)cc2C)C(=O)N(OCc2ccoc2)C12CCN(OC)CC2 [P1.77] |  | ≥ 80 | > 80 |  | > 80 |  |  |  |
| CCOC(=O)OC1=C(c2c(C)cc(C)cc2C)C(=O)N(OC2CCOCC2)C12CCN(OC)CC2 [P1.76] |  | ≥ 80 | > 80 |  | > 80 |  |  |  |
| COCCON1C(=O)C(c2c(C)cc(C)cc2Cl)=C(O)C12CCN(OC)CC2 [P2.35] |  |  | > 80 |  | > 80 | > 80 |  |  |
| CCOC(=O)OC1=C(c2c(C)cc(C)cc2C)C(=O)N(OCC2(CC)COC2)C12CCN(OC)CC2 [P1.84] |  |  | > 80 |  | > 80 |  |  |  |
| CON1CCC2(CC1)C(O)=C(c1c(C)cc(Br)cc1C)C(=O)N2OC [P2.79] |  | ≥ 80 | > 80 |  | > 80 |  |  |  |
| CCOC(=O)OC1=C(c2c(C)cc(C)cc2C)C(=O)N(OCCCOC)C12CCN(OC)CC2 [P1.44] |  | ≥ 80 | > 80 |  | > 80 | > 80 |  |  |
| CCOC(=O)OC1=C(c2c(C)cc(C)cc2C)C(=O)N(OCCOC2CCCCO2)C12CCN(OC)CC2 (stereo not shown) [P1.25] | > 80 |  |  | > 80 | > 80 |  |  |  |
| CON1CCC2(CC1)C(O)=C(c1c(C)cc(C)cc1Cl)C(=O)N2OC1CCCO1 (stereo not shown) [P2.94] |  | ≥ 80 | > 80 |  | > 80 | > 80 |  |  |

| SMILES | mortality at 400 ppm [1] [%] | mortality at 200 ppm [2] [%] | mortality at 400 ppm [3] [%] | mortality at 400 ppm [4] [%] | mortality at 400 ppm [5] [%] | mortality at 400 ppm [6] [%] | mortality at 400 ppm [7] [%] | mortality at 25 ppm [8] [%] |
| --- | --- | --- | --- | --- | --- | --- | --- | --- |
| CCOC(=O)OC1=C(c2c(C)cc(C)cc2C)C(=O)N(OC(=O)C2CC2)C12CCN(OC)CC2 [P1.16] |  |  | > 80 |  | > 80 |  |  |  |
| CON1CCC2(CC1)C(O)=C(c1c(F)ccc(C)c1Cl)C(=O)N2OC [P2.58] |  |  | > 80 |  | > 80 |  |  |  |
| COCON1C(=O)C(c2cc(-c3ccc(Cl)cc3)ccc2C)=C(O)C12CCN(OC)CC2 [P2.17] |  |  |  |  | > 80 | > 80 |  |  |
| CCOC(=O)OC1=C(c2cc(-c3ccc(Cl)cc3)ccc2C)C(=O)N(OCOC)C12CCN(OC)CC2 [P1.22] |  |  |  |  | > 80 | > 80 |  |  |
| CCOC(=O)OC1=C(c2c(C)cc(C)cc2Cl)C(=O)N(OC)C12CCN(OC)CC2 [P1.70] | > 80 |  | > 80 | > 80 |  | > 80 | > 80 | > 80 |
| C#CCON1C(=O)C(c2c(C)cc(C)cc2C)=C(OC(=O)OCC)C12CCN(OC)CC2 [P1.29] |  |  | > 80 |  | > 80 | > 80 |  |  |
| COCCON1C(=O)C(c2cc(C)ccc2C)=C(O)C12CCN(OC)CC2 [P2.3] |  | ≥ 80 | > 80 | > 80 |  | > 80 | > 80 | > 80 |
| CCOC(=O)OC1=C(c2c(C)ccc(C)c2C)C(=O)N(OCOC)C12CCN(OC)CC2 [P1.53] | > 80 | ≥ 80 | > 80 | > 80 |  |  | > 80 | > 80 |
| CCOC(=O)OC1=C(c2cc(C)c(C)cc2C)C(=O)N(OC2CCCO2)C12CCN(OC)CC2 (stereo not shown) [P1.54] |  |  |  |  | > 80 | > 80 |  |  |
| CON1CCC2(CC1)C(O)=C(c1cc(C)ccc1C)C(=O)N2OC [P2.1] |  |  | > 80 |  |  | > 80 |  | > 80 |
| CON1CCC2(CC1)C(O)=C(c1c(C)cc(C)cc1C)C(=O)N2OCC1CCCC1 [P2.85] |  | ≥ 80 | > 80 |  | > 80 | > 80 |  |  |
| CON1CCC2(CC1)C(O)=C(c1c(C)cc(C)cc1C)C(=O)N2OCC1CCCCO1 (stereo not shown) [P2.23] | > 80 |  | > 80 | > 80 |  | > 80 | > 80 |  |
| CCOC(=O)OC1=C(c2c(C)cc(C)cc2C)C(=O)N(OCC2CCC2)C12CCN(OC)CC2 [P1.106] |  | ≥ 80 | > 80 |  | > 80 | > 80 |  |  |
| CON1CCC2(CC1)C(O)=C(c1c(Cl)ccc(C)c1F)C(=O)N2OC [P2.48] |  |  | > 80 |  | > 80 |  |  |  |
| CCOC(=O)OC1=C(c2c(Cl)ccc(C)c2F)C(=O)N(OC2CCCO2)C12CCN(OC)CC2 (stereo not shown) [P1.43] |  |  | > 80 |  | > 80 |  |  |  |
| CON1CCC2(CC1)C(O)=C(c1c(C)cc(C)cc1C)C(=O)N2OC1CCCC1 [P2.25] |  |  | > 80 | > 80 | > 80 | > 80 |  |  |
| CON1CCC2(CC1)C(O)=C(c1c(C)cc(C)cc1C)C(=O)N2OCC1CCC1 [P2.97] |  | ≥ 80 | > 80 |  | > 80 | > 80 |  |  |
| COCON1C(=O)C(c2cc(C)ccc2C)=C(OC(=O)C2CC2)C12CCN(OC)CC2 [P1.4, Cyclopropanecarboxylic acid 3-(2,5-dimethyl-phenyl)-8-methoxy-1-methoxymethoxy-2-oxo-1,8-diaza-spiro[4.5]dec-3-en-4-yl ester] |  |  | > 80 | > 80 | > 80 | > 80 | > 80 | > 80 |
| CCOC(=O)OC1=C(c2cc(C)c(C)cc2C)C(=O)N(OCOC)C12CCN(OC)CC2 [P1.56] |  | ≥ 80 | > 80 |  | > 80 | > 80 |  |  |
| CCOC(=O)OC1=C(c2c(C)cc(C)cc2Br)C(=O)N(OC2CCCO2)C12CCN(OC)CC2 (stereo not shown) [P1.69] |  | ≥ 80 | > 80 |  | > 80 | > 80 |  |  |

Source: patent publication US20110224079A1, “SPIROHETEROCYCLIC N-OXYAMIDES AS PESTICIDES” (SYNGENTA CROP PROTECTION LLC, priority 2008, published 2011)
